# Measured values reported in US10172814B2, “Substituted pyridyl-cycloalkyl-carboxylic acids, compositions containing them and medical uses thereof” (BAYER PHARMA AKTIENGESELLSCHAFT, priority 2014, dated 2019).
# Molecular target: human PTGES (Homo sapiens (Human), UniProt O14684)
# Assay: Human PTGES biochemical enzyme inhibition assay (conversion of PGH2 to PGE2, TR-FRET)
# Details: Enzymatic conversion of PGH2 to PGE2; read-out: Human PTGES IC50
# Description: Human PTGES Biochemical Enzyme Inhibition Assay:
# PTGES (Microsomal prostaglandin E synthase 1) is an enzyme that converts prostaglandin H2 (PGH2) to prostaglandin E2 (PGE2) in the presence of reduced glutathione (GSH).
# Recombinant proteins (human isoforms) of PTGES containing a FLAG tag, expressed in baculovirus infected insect cells (Hi-5) and purified by affinity chromatography was used as enzyme in the assay. Substrate was prostaglandin H2 (Cayman Chemicals).
# 4 ul of a solution of human PTGES in assay buffer [100 mM sodium phosphate pH 7.2, 2.5 mM Glutathion reduced, 1 mM EDTA, 0.01% BSA, 0.4 mM DTT, 0.15 mM n-dodecylmaltoside] was added to the well containing test compound and incubated for 15-20 minutes to allow binding of the compound to the enzyme prior to the enzymatic reaction. The reaction was started by addition of 1 ul of an ice cold solution containing PGH2 (40 nM in assay buffer resulting in a final concentration of 8 nM PGH2 in the assay). […] The concentration of each isoform of PTGES was adapted to the activity of the respective enzyme preparation to maintain linear reaction properties within the reaction time. […] The reaction was stopped by addition of 1 ul of a solution containing 15 mM SnCl2 and 400 mM KF in water. SnCl2 converts the remaining unstable PGH2 to stable PGF2alpha. Then, 3 ul of the a first detection solution containing PGE2-D2 (Cisbio Bioassays, TR-FRET reagent, diluted according to the manufacturer's recommendation, typically 1:20 in reconstitution buffer) was added. […] The resulting mix was incubated overnight at 4° C. to allow the formation of a complex of PGE2 and the detection reagents. […] Dilution series were made prior to the assay in a 100 fold concentrated form by serial dilution. IC50 values were calculated by 4-Parameter fitting.
# human PTGES, sequence (O14684 whole entry): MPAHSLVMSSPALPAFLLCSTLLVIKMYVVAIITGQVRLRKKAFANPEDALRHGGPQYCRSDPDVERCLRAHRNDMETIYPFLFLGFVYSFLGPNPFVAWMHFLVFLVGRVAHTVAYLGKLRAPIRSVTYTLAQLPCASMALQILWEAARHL
row,Structure (SMILES),IC50 [nM]
1,"Cc1c(CCC(=O)O)cccc1NC(=O)C(c1ccc(-c2cncc(CC(F)(F)F)c2)c(F)c1)C1CCC1 (single isomer, unassigned) [Example 205, 3-{3-[(cyclobutyl{3-fluoro-4-[5-(2,2,2-trifluoroethyl)pyridin-3-yl]phenyl}acetyl)amino]-2-methylphenyl}propanoic acid, Single Enantiomer]",66.4
2,"Cc1cc(C(C(=O)Nc2cccc(CCC(=O)O)c2C)C2CCCC2)c(F)cc1-c1cncc(C(F)(F)F)c1 (racemic) [Example 183, (R/S) 3-{3-[(cyclopentyl{2-fluoro-5-methyl-4-[5-(trifluoromethyl)pyridin-3-yl]phenyl}acetyl)amino]-2-methylphenyl}propanoic acid]",1000
3,"Cc1ncc(-c2ccc(C(C(=O)Nc3cccc(C(C)CC(=O)O)c3C)C3CCCC3)cc2F)cc1Cl (single isomer, unassigned; stereoisomer 4) [Example 124, 3-[3-({[4-(5-Chloro-6-methylpyridin-3-yl)-3-fluorophenyl](cyclopentyl)acetyl}amino)-2-methylphenyl]butanoic acid, Stereoisomer 4]",5.06
4,"Cc1cncc(-c2ccc(C(C(=O)Nc3cccc(CCC(=O)O)c3C)C3CCC3)cc2)c1 (racemic) [Example 64, (R/S) 3-[3-({Cyclobutyl[4-(5-methylpyridin-3-yl)phenyl]acetyl}amino)-2-methylphenyl]propanoic acid]",344
5,"Cc1c(CCC(=O)O)cccc1NC(=O)C(c1ccc(-c2cncc(CF)c2)cc1)C1CCCC1 (racemic) [Example 30, (R/S) 3-{3-[(Cyclopentyl{4-[5-(fluoromethyl)pyridin-3-yl]phenyl}acetyl)amino]-2-methylphenyl}propanoic acid]",188
6,"Cc1c(NC(=O)C(c2ccc(-c3cncc(F)c3)cc2)C2CCCC2)cccc1C(CC(=O)O)C1CC1 (mixture of isomers) [Example 112, (3R/S)-3-[3-({(2R/S)-2-cyclopentyl-2-[4-(5-fluoropyridin-3-yl)phenyl]acetyl}amino)-2-methylphenyl]-3-cyclopropylpropanoic acid]",51.9
7,"Cc1c(NC(=O)C(c2ccc(-c3cncc(Cl)c3)c(F)c2)C2CCC2)cccc1C(C)CC(=O)O (single isomer, unassigned; stereoisomer 2) [Example 151, 3-[3-({[4-(5-Chloropyridin-3-yl)-3-fluorophenyl](cyclobutyl)acetyl}amino)-2-methylphenyl]butanoic acid, Stereoisomer 2]",46.5
8,"CCc1cncc(-c2ccc(C(C(=O)Nc3cccc(CCC(=O)O)c3C)C3CCC3)cc2F)c1 (single isomer, unassigned; (-)) [Example 210, (−) 3-[3-({cyclobutyl[4-(5-ethylpyridin-3-yl)-3-fluorophenyl]acetyl}amino)-2-methylphenyl]propanoic acid, Single Enantiomer]",35
9,"Cc1c(CCC(=O)O)cccc1NC(=O)C(c1ccc(-c2cncc(C(F)F)c2)cc1)C1CCCC1 (racemic) [Example 29, (R/S) 3-{3-[(Cyclopentyl{4-[5-(difluoromethyl)pyridin-3-yl]phenyl}acetyl)amino]-2-methylphenyl}propanoic acid]",78.2
10,"Cc1ccc(-c2ccc(C(C(=O)Nc3cccc(CC(C)C(=O)O)c3C)C3CCCC3)cc2)cn1 (centres unmarked) [Example 79, (2R/2S)-3-[3-({(2R/2S)-2-Cyclopentyl-2-[4-(6-methylpyridin-3-yl)phenyl]acetyl}amino)-2-methylphenyl]-2-methylpropanoic acid]",433
11,"Cc1ncc(-c2ccc(C(C(=O)Nc3cccc(C(C)CC(=O)O)c3C)C3CCCC3)cc2F)cc1Cl (single isomer, unassigned; stereoisomer 2) [Example 122, 3-[3-({[4-(5-Chloro-6-methylpyridin-3-yl)-3-fluorophenyl](cyclopentyl)acetyl}amino)-2-methylphenyl]butanoic acid, Stereoisomer 2]",22.8
12,"Cc1c(CCC(=O)O)cccc1NC(=O)C(c1ccc(-c2cncc(C(F)(F)F)c2)cc1Cl)C1CCCC1 (racemic) [Example 161, (R/S) 3-(3-{[{2-chloro-4-[5-(trifluoromethyl)pyridin-3-yl]phenyl}(cyclopentyl)acetyl]amino}-2-methylphenyl)propanoic acid]",278
13,"CCc1cncc(-c2ccc(C(C(=O)Nc3cccc(C(C)CC(=O)O)c3C)C3CCCC3)cc2)c1 (mixture of isomers) [Example 92, (3R/S)-3-[3-({(2R/S)-2-Cyclopentyl-2-[4-(5-ethylpyridin-3-yl)phenyl]acetyl}amino)-2-methylphenyl]butanoic acid]",22
14,"Cc1c(CCC(=O)O)cccc1NC(=O)C(c1ccc(-c2cncc(C(F)(F)F)c2)cc1)C1CCCCC1 (racemic) [Example 66, (R/S) 3-{3-[(Cyclohexyl{4-[5-(trifluoromethyl)pyridin-3-yl]phenyl}acetyl)amino]-2-methylphenyl}propanoic acid]",53.9
15,"CCOc1cncc(-c2ccc(C(C(=O)Nc3cccc(CCC(=O)O)c3C)C3CCC3)cc2)c1 (racemic) [Example 58, (R/S) 3-[3-({Cyclobutyl[4-(5-ethoxypyridin-3-yl)phenyl]acetyl}amino)-2-methylphenyl]propanoic acid]",210
16,"Cc1c(CCC(=O)O)cccc1NC(=O)C(c1ccc(-c2ccc(C(F)(F)F)nc2)cc1)C1CCCC1 (single isomer, unassigned; (-)) [Example 5, (−) 3-{3-[(Cyclopentyl{4-[6-(trifluoromethyl)pyridin-3-yl]phenyl}acetyl)amino]-2-methylphenyl}propanoic acid]",795
17,"Cc1c(NC(=O)C(c2ccc(-c3cncc(Cl)c3)c(F)c2)C2CCCC2)cccc1C(C)CC(=O)O (single isomer, unassigned; stereoisomer 3) [Example 128, 3-[3-({[4-(5-Chloropyridin-3-yl)-3-fluorophenyl](cyclopentyl)acetyl}amino)-2-methylphenyl]butanoic acid, Stereoisomer 3]",1730
18,"Cc1c(CC(C)C(=O)O)cccc1NC(=O)C(c1ccc(-c2cncc(OC(F)F)c2)cc1)C1CCCC1 (centres unmarked) [Example 80, (2R/2S)-3-(3-{[(2R/2S)-2-Cyclopentyl-2-{4-[5-(difluoromethoxy)pyridin-3-yl]phenyl}acetyl]amino}-2-methylphenyl)-2-methylpropanoic acid]",88.5
19,"Cc1c(NC(=O)C(c2ccc(-c3cncc(Cl)c3)cc2)C2CCC2)cccc1C(C)CC(=O)O (single isomer, unassigned; stereoisomer 3) [Example 138]",2040
20,"CCOc1cncc(-c2ccc(C(C(=O)Nc3cccc(C(C)CC(=O)O)c3C)C3CCCC3)cc2)c1 (mixture of isomers) [Example 90, (3R/S)-3-[3-({(2R/S)-2-Cyclopentyl-2-[4-(5-ethoxypyridin-3-yl)phenyl]acetyl}amino)-2-methylphenyl]butanoic acid]",108
21,"Cc1c(CCC(=O)O)cccc1NC(=O)[C@@H](c1ccc(-c2cncc(CC(F)(F)F)c2)cc1)C1CCCC1 [Example 191, 3-(3-{[(2R)-2-cyclopentyl-2-{4-[5-(2,2,2-trifluoroethyl)pyridin-3-yl]phenyl}acetyl]amino}-2-methylphenyl)propanoic acid]",60.1
22,"COc1c(CCC(=O)O)cccc1NC(=O)C(c1ccc(-c2cncc(C(F)(F)F)c2)cc1)C1CCCC1 (centres unmarked) [Example 213, 3-{3-[(cyclopentyl{4-[5-(trifluoromethyl)pyridin-3-yl]phenyl}acetyl)amino]-2-methoxyphenyl}propanoic acid]",328
23,"Cc1cc(-c2ccc(C(C(=O)Nc3cccc(CCC(=O)O)c3C)C3CCCC3)cc2)cnc1C (racemic) [Example 27, (R/S) 3-[3-({Cyclopentyl[4-(5,6-dimethylpyridin-3-yl)phenyl]acetyl}amino)-2-methylphenyl]propanoic acid]",90.3
24,"Cc1c(CCC(=O)O)cccc1NC(=O)C(c1ccc(-c2cncc(C(F)(F)F)c2)c(F)c1)C1CCC1 (single isomer, unassigned; (-)) [Example 208, (−) 3-{3-[(cyclobutyl{3-fluoro-4-[5-(trifluoromethyl)pyridin-3-yl]phenyl}acetyl)amino]-2-methylphenyl}propanoic acid, Single Enantiomer]",28.1
25,"Cc1ncc(-c2ccc(C(C(=O)Nc3cccc(CCC(=O)O)c3C)C3CCCC3)cc2F)cc1CC(C)C (single isomer, unassigned; (-)) [Example 198, (−) 3-[3-({cyclopentyl[3-fluoro-4-(5-isobutyl-6-methylpyridin-3-yl)phenyl]acetyl}amino)-2-methylphenyl]propanoic acid, Single Enantiomer]",20
26,"CCOc1cncc(-c2ccc(C(C(=O)Nc3cccc(CCC(=O)O)c3C)C3CCCC3)cc2F)c1 (racemic) [Example 46, (R/S) 3-[3-({Cyclopentyl[4-(5-ethoxypyridin-3-yl)-3-fluorophenyl]acetyl}amino)-2-methylphenyl]propanoic acid]",55.3
